Reference: ChEMBL document CHEMBL3286123, “Aliphatic phenolic ethers from Trichobotrys effusa” (2014)

Test system: A549
Assay: Growth inhibition of human A549 cells after 48 hrs by SRB assay
Type: functional
Settings: A549, 48 h

Row | Compound | GI50 [µM]
1 | C/C=C/C=C/C=C(\CO)[C@H](OCc1c(O)cccc1CCC)[C@H](C)O | 25.6
2 | C/C=C/C=C/C=C(\C=O)C(OCc1c(O)cccc1CCC)C(C)=O (stereo unspecified) | 19.3
3 | C/C=C/C=C/C=C1\[C@H](OC)O[C@](C)(OC)[C@H]1OCc1c(O)cccc1CCC | 16.2
4 | C/C=C/C=C/C=C1\CO[C@](C)(OC)[C@H]1OCc1c(O)cccc1CCC | 24.3
5 | O=c1[nH]cc(F)c(=O)[nH]1 [FLUOROURACIL] | 4.55
6 | C[C@@H]1C[C@H]2O[C@@H]2/C=C\C=C\C(=O)Cc2c(Cl)c(O)cc(O)c2C(=O)O1 [RADICICOL] | 1.43
